Key:
Assay type in all cases: physicochemical
[1] = Micronisation by jet milling
[2] = Low energy screen (slurry of form B in solvents, PXRD analysis); conditions: slurried for 2 weeks in various solvents (incl. dimethylacetamide, N-methyl-Pyrrolidine, pyridine) at 4° C., room temperature (~22° C.) and 40° C.; analysis after 2 weeks and 4 months
Description: A low energy screen was carried using N-[3-tert-butyl-1-(3-chloro-4-hydroxyphenyl)-1H-pyrazol-5-yl]-N′-{2-[(3-{2-[(2-hydroxyethyl)sulfanyl]phenyl}[1,2,4]triazolo[4,3-a]pyridin-6-yl)sulfanyl]benzyl}urea form B to investigate whether it is the lowest energy form of the compound. Samples of form B were slurried for 2 weeks in various solvents at 4° C., room temperature (˜22° C.) and 40° C. Analysis of wet and dried slurries was carried out at after 2 weeks and 4 months using PXRD.

[3] = Stability of blend with lactose monohydrate on storage; conditions: stored under aggressive conditions of heat and humidity
[4] = Hydrate screen (slurry of form B in aqueous pyridine); conditions: slurried 2 weeks at 4° C., room temperature (~22° C.) and 40° C. in aqueous pyridine containing 50%, 75% and 90% water
Description: A hydrate screen was conducted by slurrying samples of form B for 2 weeks at 4° C., room temperature (˜22° C.) and 40° C. in aqueous pyridine. The three solvent systems selected contained 50%, 75% and 90% water.

[5] = Hygroscopicity

CC(C)(C)c1cc(NC(=O)NCc2ccccc2Sc2ccc3nnc(-c4ccccc4SCCO)n3c2)n(-c2ccc(O)c(Cl)c2)n1 [form B, N-[3-tert-butyl-1-(3-chloro-4-hydroxyphenyl)-1H-pyrazol-5-yl]-N′-{2-[(3-{2-[(2-hydroxyethyl)sulfanyl]phenyl}[1,2,4]triazolo[4,3-a]pyridin-6-yl)sulfanyl]benzyl}urea]
change in crystalline form on micronisation [1]: without inducing any change in crystalline form | crystalline form after slurrying (PXRD of wet and dried slurries) [2]: remained as Form B | stability when blended with lactose monohydrate [3]: good stability | change in crystalline form [4]: No change in crystalline form | hydrated forms observed [4]: No hydrated forms were observed | hygroscopicity [5]: essentially non-hygroscopic

Reference: patent US8222273B2, “Polymorphic form of a [1,2,4]triazole[4,3-A] pyridine derivative inflammatory diseases” (Pfizer Limited, priority 2008, dated 2012)
